{"source": "patent US9637477B2", "about": "“Therapeutic substituted pyrroles” (Allergan, Inc., priority 2014, dated 2017)", "key": {"EP2 [1]": {"biological_target": "T1, EP2 (Homo sapiens, UniProt P43116)", "T1 sequence (P43116 whole entry)": "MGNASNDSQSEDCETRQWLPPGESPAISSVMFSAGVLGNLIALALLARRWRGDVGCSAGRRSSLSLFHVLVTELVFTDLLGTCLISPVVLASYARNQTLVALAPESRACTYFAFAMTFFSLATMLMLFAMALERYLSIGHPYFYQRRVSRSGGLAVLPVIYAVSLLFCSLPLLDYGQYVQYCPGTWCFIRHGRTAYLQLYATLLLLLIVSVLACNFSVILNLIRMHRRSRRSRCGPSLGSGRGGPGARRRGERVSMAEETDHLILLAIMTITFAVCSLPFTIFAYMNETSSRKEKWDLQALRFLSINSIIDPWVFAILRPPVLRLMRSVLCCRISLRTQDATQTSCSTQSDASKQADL", "experiment": "EP2 flipr functional assay", "assay_type": "cell-based", "description": "(§1) US 2007/0129552, incorporated by reference herein in its entirety, describes the methods used to obtain the in vitro data in the table below."}, "EP2 [2]": {"biological_target": "T1, EP2", "experiment": "EP2 cAMP assay", "assay_type": "cell-based", "description": "as §1"}, "EP2 [3]": {"biological_target": "T1, EP2", "experiment": "EP2 binding (Ki)", "description": "as §1"}, "EP4 [4]": {"biological_target": "T2, EP4 (Homo sapiens, UniProt P35408)", "T2 sequence (P35408 whole entry)": "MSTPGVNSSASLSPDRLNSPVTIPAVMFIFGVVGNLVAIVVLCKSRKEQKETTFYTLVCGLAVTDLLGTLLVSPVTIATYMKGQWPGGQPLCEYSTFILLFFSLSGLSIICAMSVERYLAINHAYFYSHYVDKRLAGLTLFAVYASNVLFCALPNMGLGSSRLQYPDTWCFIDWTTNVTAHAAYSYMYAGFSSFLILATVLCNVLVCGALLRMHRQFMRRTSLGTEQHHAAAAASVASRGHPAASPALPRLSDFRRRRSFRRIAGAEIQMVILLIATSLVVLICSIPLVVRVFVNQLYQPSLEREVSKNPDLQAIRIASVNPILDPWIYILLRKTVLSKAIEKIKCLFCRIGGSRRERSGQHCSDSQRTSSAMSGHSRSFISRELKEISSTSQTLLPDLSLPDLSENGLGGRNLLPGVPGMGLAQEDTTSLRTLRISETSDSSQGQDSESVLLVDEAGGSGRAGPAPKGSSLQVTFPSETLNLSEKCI", "experiment": "EP4 flipr functional assay", "assay_type": "cell-based", "description": "as §1"}, "EP4 [5]": {"biological_target": "T2, EP4", "experiment": "EP4 binding (Ki)", "description": "as §1"}}}
{"smiles": "CCCCCCc1ccc(-c2cccn2CCCc2ccc(C(=O)O)s2)cc1", "note": "[Example 1, 5-(3-(2-(4-hexylphenyl)-1H-pyrrol-1-yl)propyl)thiophene-2-carboxylic acid]", "values": [{"measurement": "EC50", "setting": "EP2 [1]", "value": 998, "unit": "nM"}, {"measurement": "EC50", "setting": "EP2 [2]", "value": 3, "unit": "nM"}, {"measurement": "Ki", "setting": "EP2 [3]", "value": 23, "unit": "nM"}, {"measurement": "EC50", "setting": "EP4 [4]", "value": "> 10000", "unit": "nM"}, {"measurement": "Ki", "setting": "EP4 [5]", "value": 2660, "unit": "nM"}]}
